According to patent US20040176368A1, “Pesticidal composition” (Sumitomo Chemical Company, Limited, priority 2003, published 2004):

Tested on: German cockroaches (Blattlla germanica)
Experiment: Spray test on German cockroaches in glass box (Test example 1)
Format: in vivo
Conditions: 4.2 ml sprayed, 10 min exposure, observed 4 days thereafter
Description: Two grams (2 g) of each of Indoxacarb MP and Imiprothrin are mixed with 98 g of a mixture of xylene/Sorpol SM200X (surfactant produced by Toho Chemical)=85/15 to give each formulation of Indoxacarb MP and Imiprothrin. The formulations for the following tests are produced by mixing the Indoxacarb MP formulation with the Imiprothrin formulation at the designated ratio. The formulations for the tests are diluted with water to the designated concentration to give the preparations for the test.
Into the glass box, 4.2 ml of the preparation obtained above were sprayed with a spray gun. Ten minutes after spraying, the cockroaches were transferred to a plastic container and were provided with food and water. The mortality of the cockroaches was observed 4 days thereafter.

## C#CCN1CC(=O)N(COC(=O)C2C(C=C(C)C)C2(C)C)C1=O (mixture of isomers) [Imiprothrin, 2,5-dioxo-3-prop-2-ynylimidazolidin-1-ylmethyl (1R)-trans,cis-2,2-dimethyl-3-(2-methylprop-1-enyl)cyclopropanecarboxylate]
Concentration of the preparation 0.4 % by weight
  Mortality (%): 0%

## COC(=O)N(C(=O)N1COC2(C(=O)OC)Cc3cc(Cl)ccc3C2=N1)c1ccc(OC(F)(F)F)cc1 (racemic) [Indoxacarb MP, methyl (RS)-7-chloro-2,5-dihydro-2-[[(methoxycarbonyl)[4-(trifluoromethoxy)phenyl]amino]carbornyl]indeno[1,2-e][1,3,4]oxadiazine-4a(3H)-carboxylate]
Concentration of the preparation 0.5 % by weight
  Mortality (%): 25%
